The text below walks through data of paper PMC11017246, “Discovery of GLPG2737, a Potent Type 2 Corrector of CFTR for the Treatment of Cystic Fibrosis in Combination with a Potentiator and a Type 1 Co-corrector” (Journal of Medicinal Chemistry, 2024).

In brackets after ≈: the same amount, converted by molar mass. Where two headings read alike, the source gives them in different places.

The test system of series [1] is patients with CF homozygous for ΔF508. Further details: method as in PMID 31594690. To be noted: patients receiving ivacaftor/lumacaftor; cited from earlier work.
The nature of another series: Thermodynamic solubility. Format: physicochemical. The protocol:
Dry matter of compound was dissolved at 1 mg/mL in buffers at different pH (Fasted simulated gastric fluid and pH 7.4) in glass vials. After 24 h of stirring at room temperature, a sample is taken, centrifuged for 10 min at 10,000 rpm, and filtered. The samples were diluted in duplicate in DMSO (F100 and F10). Then, a final dilution (F100) in 80/20 water/acetonitrile containing the internal standard was used for the LCMS-MS analysis.
A standard curve was made ranging from a 200,000–75 ng/mL stock in DMSO, freshly prepared from dry matter. The standard curve and quality controls were diluted in an F100 in 80/20 water/acetonitrile (with internal standard) and analyzed on LC/MS-MS. The peak areas of the standard curve are plotted in a graph, and a linear or polynomial of the second order equation is used to calculate the unknown concentrations of the test compound.

Series [2] can be described thus: Hepatocyte stability, monkey. The conditions noted are these: monkey hepatocytes. Format: in vitro ADME. The procedure: The hepatocyte stability assay was performed by incubation of test compound at 1 μM, 0.03% DMSO in modified Krebs–Henseleit buffer with suspension of pooled cryopreserved hepatocytes (BioIVT, Hicksville, NY, USA) from mouse, rat, dog, or human (BioIVT, Hicksville, NY, USA) at 0.5 million viable hepatocytes/mL. Before adding the hepatocytes (time zero) and after 10, 20, 45, 90, 120, and 180 min of incubation (n = 2) at 37 °C while gently shaking, the reaction was stopped and proteins were precipitated with an excess of acetonitrile containing an internal standard. The samples were mixed, centrifuged, and filtered, and the supernatant was analyzed by liquid chromatography–mass spectrometry/mass spectrometry (LC–MS/MS). The instrument responses (peak areas/IS peak areas) were referenced to the zero-time point samples (considered as 100%) in order to determine the percentage of compound remaining.

Another series relates to Caco-2 cells. Briefly: Intestinal permeability on Caco-2 cells. The class given is in vitro ADME, human. To be noted: A to B, n = 1. The procedure: (§1) Caco-2 cells were obtained from the European Collection of Cell Cultures (ECACC) and used after a 21-day cell culture in 24-well Transwell plates. Test compounds and the references (vinblastine and propranolol) were prepared in protein-free Hanks’ balanced salt solution containing 25 mM HEPES (pH 7.4) at a concentration of 10 μM and added to either the apical or basolateral chambers of a Transwell plate assembly. Before the experiment, the integrity of the monolayer was checked by measuring the transepithelial resistance. Lucifer yellow (LY) was added to the donor buffer in all wells to assess the integrity of the cell layers by monitoring LY permeation. As LY cannot freely permeate lipophilic barriers, a high degree of LY transport indicates poor integrity of the cell layer. […] Concentrations of the compound in the samples were measured by LC–MS/MS. Apparent permeability (Papp) coefficients were calculated from the relationship: Papp = dQ/dt × 1/A × C0, where Papp is the apparent permeability coefficient (cm s^–1), dQ/dt is the amount of drug permeated per unit of time, A is the effective surface area of the artificial membrane exposed to the medium, and C0 is the initial drug concentration in the donor compartment. The efflux ratios, as an indication of active efflux from the apical cell surface, were calculated using the ratio of Papp(B → A)/Papp(A → B).

Series [3] in a line: Intestinal permeability on Caco-2 cells. Format: in vitro ADME, human. To be noted: human, Caco-2, pH 7.4; A to B, n = 1; read-out: Caco-2 PA2B. The procedure: as §1
(In general: Caco-2 monolayers are a common model of the intestinal barrier.)

A further series deals with T1, CYP1A2 (Homo sapiens, UniProt P05177).
T1 construct: tissue BD Gentest; host or cells: human liver microsomes
T1 sequence (P05177 1-516): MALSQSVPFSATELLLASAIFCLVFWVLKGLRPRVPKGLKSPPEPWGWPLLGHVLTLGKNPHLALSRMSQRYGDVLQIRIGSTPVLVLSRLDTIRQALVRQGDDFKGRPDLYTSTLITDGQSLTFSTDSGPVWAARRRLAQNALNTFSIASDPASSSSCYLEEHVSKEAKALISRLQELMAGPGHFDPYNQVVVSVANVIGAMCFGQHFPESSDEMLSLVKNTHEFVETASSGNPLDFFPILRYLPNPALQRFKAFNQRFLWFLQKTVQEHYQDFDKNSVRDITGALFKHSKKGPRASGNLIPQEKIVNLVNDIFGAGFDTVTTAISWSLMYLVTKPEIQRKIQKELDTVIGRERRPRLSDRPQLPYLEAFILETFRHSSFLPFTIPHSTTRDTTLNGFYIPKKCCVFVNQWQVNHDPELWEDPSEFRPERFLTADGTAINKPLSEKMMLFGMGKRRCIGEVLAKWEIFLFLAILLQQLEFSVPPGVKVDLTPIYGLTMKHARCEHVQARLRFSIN
Briefly: CYP reversible inhibition in HLM, CYP1A2. The conditions noted are these: probe phenacetin. Format: in vitro ADME. The protocol: (§2) Test compounds were diluted in methanol and then added to mixture containing 50 mM potassium phosphate buffer, pH 7.4, human liver microsomes (BD Gentest) and probe substrate. After prewarming for 5 min at 37 °C, the reaction was started by adding cofactor mix (7.65 mg/mL glucose-6-phosphate, 1.7 mg/mL NADP, 6 U/mL of glucose-6-phosphate dehydrogenase), resulting in seven final concentrations of test compounds in the range 0.14–100 μM (2% methanol). Isoform specific conditions regarding probe substrate and microsomal protein concentrations are available in Table 2. Final concentrations of cofactor mix components were as follows: 1.56 mg/mL glucose-6-phosphate, 0.34 mg/mL NADP, and 1.2 U/mL glucose-6-phosphate dehydrogenase. After incubation at 37 °C, the reaction was terminated with acetonitrile:methanol (2:1) solution with internal standard. Samples were centrifuged, and the supernatant fractions were analyzed by LC-MS/MS. The instrument responses (test compounds and internal standard peak areas) were referenced to those for solvent controls (assumed as 100%) in order to determine the percentage reduction in probe metabolism. Percent of control activity vs concentration plots were generated and fitted using GraphPad Prism software to generate IC50.

The next series has as its target (h)Sigma. Briefly: Radioligand binding, (h)Sigma (Eurofins panel). The conditions noted are these: read-out: IC50, inhibition of radioligand binding to (h)Sigma. Set-up: species or system human.
For a further series, the target named is T2, CYP2D6 (Homo sapiens, UniProt P10635).
T2 construct: tissue BD Gentest; host or cells: human liver microsomes
T2 sequence (P10635 whole entry): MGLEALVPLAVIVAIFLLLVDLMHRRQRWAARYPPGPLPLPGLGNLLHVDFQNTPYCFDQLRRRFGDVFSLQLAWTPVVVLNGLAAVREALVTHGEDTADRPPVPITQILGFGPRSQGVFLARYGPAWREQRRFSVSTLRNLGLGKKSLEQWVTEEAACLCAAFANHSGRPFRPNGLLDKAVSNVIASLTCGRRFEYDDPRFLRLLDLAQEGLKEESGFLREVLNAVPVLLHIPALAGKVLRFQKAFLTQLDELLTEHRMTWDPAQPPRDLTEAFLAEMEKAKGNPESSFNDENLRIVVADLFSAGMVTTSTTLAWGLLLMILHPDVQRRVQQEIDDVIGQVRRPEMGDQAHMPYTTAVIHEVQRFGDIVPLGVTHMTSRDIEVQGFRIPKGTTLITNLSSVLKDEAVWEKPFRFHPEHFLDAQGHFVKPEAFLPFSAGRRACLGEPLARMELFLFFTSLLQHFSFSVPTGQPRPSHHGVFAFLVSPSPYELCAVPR
Briefly: CYP reversible inhibition in HLM, CYP2D6. The class given is in vitro ADME. The conditions noted are these: probe dextromethorphan. The protocol: as §2

The subject of another series is CYP3A4. Briefly: CYP reversible inhibition in HLM, CYP3A4. Format: in vitro ADME. To be noted: human, human liver microsomes. The protocol:
as §2
(In general: Liver microsomes are a subcellular fraction often used to study metabolism.)

For the compound `COC1CCN(C2CCN(c3cc(C(=O)NS(=O)(=O)N(C)C)nc4c3c(C3CCC3)nn4-c3ccc(F)cc3)CC2)CC1` [Compound 52, 3-Cyclobutyl-N-(N,N-dimethylsulfamoyl)-1-(4-fluorophenyl)-4-(4-methoxy-[1,4′-bipiperidin]-1′-yl)-1H-pyrazolo[3,4-b]pyridine-6-carboxamide], the efficacy versus placebo result in series [1] is “improved efficacy versus placebo”. Besides, the tolerability result in [1] is listed as “well tolerated”. In addition, the thermodynamic solubility at 24 h in “Thermodynamic solubility” (buffer pH 7.4, pH 7.4, read-out: thermodynamic solubility pH 7.4) was 9.9 µg/mL (≈ 16.1 µM); in the series “Thermodynamic solubility” (fasted simulated gastric fluid, read-out: thermodynamic solubility FASSGF), 10.9 µg/mL (≈ 17.8 µM). Further, the “Hepatocyte stability: %LBF monkey” value in [2] is recorded as 65 %LBF. Besides, the “Hepatocyte stability: predicted hepCl monkey” value in series [2] (1 µM) is 28.8 mL/min/kg. Also, in the series with Caco-2 cells, the “Caco-2 PA2B” value stood at 24.5 cm × 10^–6 s^–1. Also, the Papp A→B at 1 h, 10 μM in series [3] amounted to 24.5 ×10⁻⁶ cm/s. Also, the IC50 on CYP1A2 was > 100 µM; at (h)Sigma it was 0.36 µM; at CYP2D6 it was > 100 µM; with CYP3A4 (pH 7.4, probe midazolam) it was > 100 µM; in the series with CYP3A4 (pH 7.4, probe testosterone), > 100 µM.

The thermodynamic solubility is the concentration in solution at equilibrium with solid. As usually defined, the IC50 is the concentration that inhibits the measured activity by half.
